Measurements published in patent publication US20220218614A1, “IONIZABLE CATIONIC LIPIDS AND LIPID NANOPARTICLES, AND METHODS OF SYNTHESIS AND USE THEREOF” (Tidal Therapeutics, Inc., priority 2020, published 2022).
Entries after “also recorded” stand apart in the source; their conditions may differ.

Experiments:
human CD3 T cells = experiment: Transfection of human CD3 T cells (CD8 and CD4 subsets) with Fab/Nb-targeted LNPs; format: cell-based; settings: targeted Lipid 8 LNP (Lipid 5 in Example 43), GFP mRNA approximately 2.5 μg/mL, approximately 24 hr
Protocol: LNPs were prepared using the mixing process described in Example 6, the buffer exchange process described below in Example 21. Using methods similar to Example 12, hSP34 and TRX2 Fab-lipid conjugates and a non-T cell specific anti-HER2 lipid-conjugate (Nellis D F, Ekstrom D L, Kirpotin D B, Zhu J, Andersson R, Broadt T L, Ouellette T F, Perkins S C, Roach J M, Drummond D C, Hong K, Marks J D, Park J W and Giardina S L (2005) Preclinical manufacture of an anti-HER2 scFv-PEG-DSPE, liposome-inserting conjugate. 1. Gram-scale production and purification. Biotechnol Prog 21:205-220) were post-inserted at various densities (SP34 0.25-17 g/mol; TRX2 0.25-9 g/mol; SP34+TRX2 0.25-9 g/mol each conjugate; anti-HER2 17 g/mol) into LNPs containing Lipid 8 and anti-CD20 targeting CART mRNA. Transfections were performed with human CD3 T cells at approximately 2.5 μg/mL mRNA for approximately 24 hr. For FACS analysis T cells were stained with M1 antibody (Sigma, F3040) that bind a N-terminus FLAG-tag variant sequence on the TTR-023 CAR (sequence provided below) in addition to staining for CD69 (Biolegend, 310930) and CD4 (Biolegend, 344648) to differentiate CD8 from CD4 cells.
LNPs were prepared using the mixing process described in Example 6, the buffer exchange process described in Example 21. Using methods similar to Example 12, hSP34, TRX2, and Ibalizumab Fab-lipid conjugates and a non-T cell specific anti-HER2 lipid-conjugate were post-inserted at various densities (specified in FIGS. 20A and 20B into LNPs containing Lipid 8 and Cy5/GFP mRNA. Transfections were performed with human CD3 T cells at approximately 2.5 μg/mL mRNA for approximately 24 hr and stained for CD69 (Biolegend, 310930) and CD4 (Biolegend, 344648) to differentiate CD8 from CD4 cells by FACS analysis.
LNPs were prepared using the mixing process described in Example 6, the buffer exchange process described in Example 21. […] Levels of transfection of CD3 T cells was measured by flow cytometry. […]

IFNγ = experiment: Human IFNγ ELISA of T cell culture supernatants after LNP transfection; format: cell-based; settings: T cells approximately 24 hr after targeted LNPs at approximately 2.5 μg/mL mRNA
Protocol: LNPs were prepared using the mixing process described in Example 6, the buffer exchange process described in Example 21. hSP34 and TRX2 Fab-lipid conjugates generated from methods described in Example 4 and a non-T cell specific anti-HER2 lipid-conjugate (Nellis D F, Ekstrom D L, Kirpotin D B, Zhu J, Andersson R, Broadt T L, Ouellette T F, Perkins S C, Roach J M, Drummond D C, Hong K, Marks J D, Park J W and Giardina S L (2005) Preclinical manufacture of an anti-HER2 scFv-PEG-DSPE, liposome-inserting conjugate. 1. Gram-scale production and purification. Biotechnol Prog 21:205-220) were post-inserted at various densities (SP34 0.6-17 g/mol; TRX2 3-9 g/mol; anti-HER2 17 g/mol) into LNPs containing Lipid 8, Cy5 labeled GFP mRNA and GFP mRNA (1:9 Cy5:GFP mass ratio) by adding conjugate and LNPs together and heating the solution without mixing in a thermal cycler at 60 C for 60 min and cooled to 4° C. for 3-5 min. […] After transfection, LNP binding efficiency (Cy5) and transfection efficiency (GFP) was evaluated by flow cytometry. Supernatants were measured for human IFNγ concentration using a commercially available ELISA kit under manufacturers recommended conditions (R&D Systems Duoset).
IFN-γ was assayed using an R&D Duoset […] ELISA kit, PN DY285B. […] Optical density at 450 nm was read on a Spectramax M5 plate reader. […]

Substance | % GFP transfection and GFP expression (MFI) of CD8 and CD4 T cells, in words (human CD3 T cells) | IFNγ secretion into supernatant, in words (IFNγ)
SP34 NoDS Fab: anti-CD3 Fab without interchain disulfide, SEQ ID NO: 38 and 39 | higher % transfection (FIG. 65E) and higher GFP expression levels (FIG. 65F) than the SP34 DS Fab; also recorded: higher % transfection (FIG. 67A) and higher GFP expression levels | –
TRX4: anti-CD3 TRX4 bDS Fab, SEQ ID NO: 50 and 51 | lower levels of GFP expression | higher levels of IFNγ secretion than SP34
